Results from US20180168208A1 (priority 2014, published 2018).
Read-outs that look alike come from different tables or passages of the source.

Target: T1, cat T1R1/T1R3 receptor (Felis catus, UniProt A0ABI7Z2I4)
T1 sequence (A0ABI7Z2I4 171-420): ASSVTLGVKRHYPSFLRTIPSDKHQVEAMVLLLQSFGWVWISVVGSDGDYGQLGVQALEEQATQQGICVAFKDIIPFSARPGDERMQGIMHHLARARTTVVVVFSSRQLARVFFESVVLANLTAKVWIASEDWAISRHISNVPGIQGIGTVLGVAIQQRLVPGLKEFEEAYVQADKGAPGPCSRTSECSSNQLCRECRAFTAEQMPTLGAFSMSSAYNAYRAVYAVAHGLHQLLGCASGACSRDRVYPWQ
T1 sequence (Q49KI5 25-865 E206Q/N523D/F654L partner): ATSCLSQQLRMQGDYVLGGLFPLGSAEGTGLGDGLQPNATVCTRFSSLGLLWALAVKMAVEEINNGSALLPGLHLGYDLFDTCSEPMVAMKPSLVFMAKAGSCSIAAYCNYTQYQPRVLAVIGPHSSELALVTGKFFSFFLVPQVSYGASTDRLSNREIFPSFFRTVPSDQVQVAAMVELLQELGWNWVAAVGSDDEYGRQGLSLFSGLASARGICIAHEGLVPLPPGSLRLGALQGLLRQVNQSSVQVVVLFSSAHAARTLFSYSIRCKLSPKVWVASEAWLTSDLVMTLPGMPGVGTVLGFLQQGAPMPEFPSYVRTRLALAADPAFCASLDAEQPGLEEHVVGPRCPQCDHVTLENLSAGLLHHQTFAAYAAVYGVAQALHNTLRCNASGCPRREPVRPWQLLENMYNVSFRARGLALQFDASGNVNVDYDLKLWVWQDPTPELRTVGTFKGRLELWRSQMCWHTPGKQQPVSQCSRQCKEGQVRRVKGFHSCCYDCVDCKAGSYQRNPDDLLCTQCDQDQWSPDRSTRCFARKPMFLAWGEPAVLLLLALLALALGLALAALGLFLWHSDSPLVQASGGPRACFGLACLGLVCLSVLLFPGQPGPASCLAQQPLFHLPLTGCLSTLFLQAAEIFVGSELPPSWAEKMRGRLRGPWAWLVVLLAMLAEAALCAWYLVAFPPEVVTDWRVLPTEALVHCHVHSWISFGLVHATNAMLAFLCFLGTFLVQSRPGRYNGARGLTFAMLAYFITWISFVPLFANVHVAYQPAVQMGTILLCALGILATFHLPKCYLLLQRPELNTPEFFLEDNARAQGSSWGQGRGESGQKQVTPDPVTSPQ
Assay: cell-based
Settings: for function as activators of T1R1/T1R3 (in words): in the presence of alanine
Excerpt: HEK293 cells that stably express T1R3 and inducibly express T1R1 were exposed to nucleotide derivatives alone or in combination with one or more amino acids and/or one or more nucleotides to activate the umami receptor. Activation of the T1R1/T1R3 receptor was detected by a change in intracellular calcium levels using a calcium sensitive fluorescent dye and/or a luminescent reporter system. Cells that express T1R3 but not T1R1 were used as a control. A FLIPR® Tetra or a FlexStation® 3 was used for data capture.

[1] = maximum response in relation to the response with IMP, 20 mM alanine
[2] = maximum response of the receptor, 20 mM alanine
[3] = threshold amount that results in activation of T1R1/T1R3, 20 mM alanine

Compound: CNc1ncnc2c1ncn2[C@H]1C[C@H](OP(=O)(O)O)[C@@H](COP(=O)(O)O)O1
- Max resp. (ΔF/F): 1.8150 ΔF/F
- Max. resp. % of IMP: 146.1 % of IMP
- Threshold: 0.013 mM

Compound: O=C(Nc1ncnc2c1ncn2[C@@H]1O[C@H](COP(=O)(O)O)[C@@H](O)[C@H]1O)c1ccccc1
- Activity: active
- Max resp. (ΔF/F): 1.1 ΔF/F
- Threshold: 0.3 mM
- EC50 (read-out: EC50- with Ala): > 1000 µM

Compound: O=c1ccn(C2OC(COP(=O)(O)N3CCOCC3)C(O)C2O)c(=O)[nH]1 (stereo not shown)
- Max. resp. % of IMP [1]: 104.8 % of IMP
- Max resp. (ΔF/F) [2]: 1.0150 ΔF/F
- Threshold [3]: 2.000 mM

Compound: 2′-,3′-O-(N′-Methylanthraniloyl) guanosine-5′-O-monophosphate
- Max. resp. % of IMP [1]: 74.3 % of IMP
- Max resp. (ΔF/F) [2]: 0.7190 ΔF/F
- Threshold [3]: 0.0014 mM

Compound: 2′-,3′-O-(N′-Methylanthraniloyl)guanosine-5′-O-monophosphate
- Activity (+Alanine (20 mM)): active
- Max. resp. % of IMP [1]: 74.3 % of IMP
- Max resp. (ΔF/F) [2]: 0.7190 ΔF/F
- Threshold [3]: 0.0014 mM

Compound: 2′-, 3′-O—(N′-methylanthraniloyl)guanosine-5′-O-monophosphate
- function as activators of T1R1/T1R3 (in words): activators of T1R1/T1R3

Compound: Nc1ncnc2c1ccn2[C@H]1O[C@@H](COP(=O)(O)O)[C@H](O)[C@@H]1O (stereo in doubt) [7-Deazaadenosine-5′-O-monophosphate]
- Activity: active
- Threshold: 0.188 mM

Compound: Nc1nc2c(ncn2[C@H]2O[C@@H](COP(=O)(O)O)[C@H](O)[C@@H]2O)c(=O)[nH]1 (stereo in doubt) [guanosine monophosphate, reference compound]
- Activity: active
- EC50: 30 µM
- Threshold: 0.008 mM

Compound: O=c1ccn([C@H]2O[C@@H](COP(=O)(O)O)[C@H](O)[C@@H]2O)c(=O)[nH]1 (stereo in doubt) [uridine monophosphate]
- Activity: active
- EC50: > 30000 µM
- Threshold: 3.000 mM

Compound: O=P(O)(O)OC[C@H]1O[C@@H](n2cnc3c2ncn2ccnc32)[C@H](O)[C@@H]1O [1, N6-Ethenoadenosine-5′-O-monophosphate]
- Threshold: 0.010 mM

Compound: O=P(O)(O)OC[C@H]1O[C@@H](n2cnc3c2ncn2ccnc32)[C@H](O)[C@@H]1O [1,N6-Ethenoadenosine-5′-O-monophosphate]
- Activity (+Alanine (20 mM)): active

Compound: Nc1nc(Cl)c2ncn(C3OC(COP(=O)(O)O)C(O)C3O)c2n1 (stereo not shown) [2-amino-6-chloropurineriboside-5′-O-monophosphate]
- Activity: active
- EC50: 0.5 µM
- Threshold: 0.00013 mM

Compound: CNc1ccccc1C(=O)OC1C[C@H](n2cnc3c(=O)[nH]c(N)nc32)O[C@@H]1COP(=O)(O)O (stereo partly shown) [2′-Deoxy-3′-O-(N′-methylanthraniloyl) guanosine-5′-O-monophosphate]
- Activity: active
- Max resp. (ΔF/F): 0.295 ΔF/F
- Max. resp. % of IMP: 23.7 % of IMP
- Threshold: 0.0025 mM
- function as activators of T1R1/T1R3 (in words): activators of T1R1/T1R3

Compound: CNc1ccccc1C(=O)O[C@H]1C[C@H](n2cnc3c(N)ncnc32)O[C@@H]1COP(=O)(O)O [2′-Deoxy-3′-O-(N′-methylanthraniloyl)adenosine-5′-O-monophosphate]
- Activity: active
- Max resp. (ΔF/F): 0.3975 ΔF/F
- Max. resp. % of IMP: 32.0 % of IMP
- Threshold: 0.0025 mM
